From article PMC9995496, “A screen for MeCP2-TBL1 interaction inhibitors using a luminescence-based assay” (Scientific Reports, 2023) come the findings set out here.

This assay has as its target T1, MeCP2-TBL1 interaction (MeCP2-SmBiT / TBL1-LgBiT) (Mus musculus, UniProt Q9QXE7).
T1 construct: expressed in transfected cells; crude lysate used as a cell-free assay
T1 sequence (Q9QXE7 166-527): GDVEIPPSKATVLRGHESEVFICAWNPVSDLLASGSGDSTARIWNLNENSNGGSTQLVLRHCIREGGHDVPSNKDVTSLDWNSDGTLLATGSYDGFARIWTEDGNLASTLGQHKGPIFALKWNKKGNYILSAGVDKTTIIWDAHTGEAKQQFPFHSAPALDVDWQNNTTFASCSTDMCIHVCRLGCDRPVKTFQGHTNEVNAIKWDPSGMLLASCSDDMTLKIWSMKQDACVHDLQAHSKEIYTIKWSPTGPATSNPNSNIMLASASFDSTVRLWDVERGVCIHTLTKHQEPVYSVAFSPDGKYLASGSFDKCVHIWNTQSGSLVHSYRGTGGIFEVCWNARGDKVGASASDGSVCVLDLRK
As to the kind of experiment: MeCP2-TBL1 NanoLuc luciferase complementation assay (cell-free, extracts of transfected HEK293 cells).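 Also: each compound tested at 20 µM final concentration.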 Format: binding, human. A digest of the protocol:
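Cell-free split NanoLuc: lysate of HEK293 cells co-expressing the MeCP2 C-terminal half-SmBiT and TBL1 WD domain-LgBiT, mixed 1:1 with furimazine. After 30 min at room temperature, luminescence was plate-median normalized.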

Setting [1] is: primary screen of the Asinex library, sheet "Sargen output Asinex library", one well per compound.
[2] abbreviates: primary screen of the Asinex library, sheet "Sargen output Asinex library", one well per compound, Batch Ref. 1.
[3] abbreviates: primary screen of Asinex library, single well per compound.

In the case of `COc1ccccc1Cc1ccc(C(=O)N2CCCC2c2cccc(-c3cncn3C)n2)cn1` (stereo not drawn) [BDH_33521317], the Inhibition percent under setting [1] is listed as -1.25%.

Regarding `CC(=O)N[C@@H]1CCO[C@H](c2ccc(NC(=O)C(c3ccccc3)c3ccccc3)cc2)C1` [BDF_23111075], under setting [2], the Inhibition percent stood at 0.91%.

On to `Cc1ccccc1OCCC(=O)N1CCC(c2nc(N(C)C)ncc2-c2cccc(F)c2)C1` (stereo not drawn) [BDF_24539058], for which the Inhibition percent under setting [1] amounted to 9.04%.

Take `COc1ccc(C)cc1NC(=O)CN1CC[C@@]2(NC(C)=O)CN(C(C)=O)[C@H](c3ccccc3)[C@H]2C1` [BDH_33625816]: the Inhibition percent under setting [2] was found to be 0.56%.

As to `CC1(C)Oc2ccc(Cl)cc2[C@H]2O[C@H]3CCN(C(=O)c4ccccc4OCC(=O)O)C[C@H]3C[C@@H]21` [BDG_34133540], the Inhibition percent under setting [3] is 1.43.

As to `C[C@@]12C[C@H]3[C@H](Cc4ccccc4)N[C@@H]1CCCC[C@@H]2N3C(=O)c1ccnc(Cc2ccccc2)c1` [BDH_33392602], the Inhibition percent under setting [1] is 3.55%.

`O=C(Cc1c[nH]c2ccccc12)N1CCC2(CC=CCN(Cc3ccc(F)cc3)C2=O)CC1` [BDE_25848651]: the Inhibition percent under setting [1] is on record as -0.14%.

For the molecule `Nc1nc(-c2ccccc2)nc2nc(C3CCCN(C(=O)COc4ccccc4)C3)ccc12` (stereo not drawn) [BDE_26160293], under setting [2], the Inhibition percent is -0.81%.

Consider `COc1ccc(C(=O)N2CCCC(Cc3cccc4ncccc34)C2)cc1NCc1ccncc1` (stereo not drawn) [BDH_32359947], for which the Inhibition percent under setting [3] was -3.52.

As for `O=C(c1cccc(Oc2ncccn2)c1)N1CCCC2(CC1)CN(c1cccc(F)c1)C(=O)O2` (stereo not drawn) [BDH_32369515], under setting [3], the Inhibition percent is -4.84.

In the case of `CC1(C)Oc2ccccc2[C@@H]2O[C@@H]3CCN(C(=O)c4cccc(Cn5ccnc5)c4)C[C@@H]3C[C@H]21` [BDG_34133919], the Inhibition percent under setting [2] was 1.73%.

As to `Cc1cccc(CC(=O)N2CCC(Cc3cccc(-c4cccnc4)c3)(C(N)=O)CC2)c1` [BDC_22461702], the Inhibition percent under setting [2] is reported as -2.13%.

As to `CC(C)=CCC[C@]1(C)Oc2cc(OCC(=O)O)ccc2[C@H]2OCC3(CCN(C(=O)OC(C)(C)C)CC3)C[C@@H]21` [BDH_33958802], under setting [1], the Inhibition percent was 4.22%.

Turning to `CCCN1CCN(C(=O)c2c[nH]cn2)CC(Cc2ccccc2-c2ccccc2OC)C1=O` (stereo not drawn) [BDE_33754981], the Inhibition percent under setting [2] is listed as 0.35%.

Turning to `O=C(c1ccc(Cc2cccc(F)c2)nc1)N1CCCC2(CC1)CN(c1ccccc1)C(=O)O2` (stereo not drawn) [BDH_32296010], under setting [3], the Inhibition percent is -0.22.

With `C[C@]12C[C@@H]3N[C@H]1CCC[C@H]2N(Cc1ccccc1C(=O)O)[C@H]3Cc1ccccc1` [BDG_33391350], the Inhibition percent under setting [2] is on record as -0.20%.

For the molecule `Cc1cc(Oc2ccc(C(N)=O)cc2)nc(C2CCCCN2C(=O)CCCN2CCCCCC2)n1` (stereo not drawn) [BDE_33629625], the Inhibition percent under setting [1] was -1.16%.

In the case of `CC(=O)N[C@@]12CN(C(C)=O)CC[C@@H]1[C@@H](c1ccccc1)N(CC(=O)Nc1cccc(F)c1C)C2` [BDH_33622250], the Inhibition percent under setting [2] is -0.19%.

Consider `CN1C(=O)N(CC(=O)N2CCCCC2CCNC(=O)c2ccccc2)C(=O)C12CCCCC2` (stereo not drawn) [BDH_33629465], for which, under setting [3], the Inhibition percent is reported as 1.86.

`O=C1CCCN1CCOc1ccccc1C(=O)N1CCCC(Cc2cn3ccnc3cn2)CC1` (stereo not drawn) [BDH_32372856]: under setting [1], the Inhibition percent is -2.49%.

Take `C[C@@]12C[C@H]3[C@@H](Cc4ccccc4)N[C@@H]1CCCC[C@@H]2N3C(=O)CNC(=O)c1cncc(O)c1` [BDG_33504652]: the Inhibition percent under setting [2] was 0.85%.

With `Cc1ccc2c(c1)OC1(CCN(Cc3ccc(Cl)cn3)CC1)[C@H]1CCCO[C@H]21` [BDG_33900424], the Inhibition percent under setting [3] is 0.92.

With `O=C(c1cccc(Oc2ncccn2)c1)N1CC[C@H]2[C@H]1CCCCC(=O)N2Cc1ccccc1` [BDH_32363931], under setting [1], the Inhibition percent is -2.83%.

As to `COc1ccc(C(=O)N2CCCC(Cc3cn4ccnc4cn3)CC2)cc1OCc1ccccn1` (stereo not drawn) [BDH_32371251], the Inhibition percent under setting [1] is given as 1.17%.

With `C[C@]12C[C@@H]3N[C@H]1CCC[C@H]2N(C(=O)c1cccc(Cc2ccccc2F)n1)[C@H]3Cc1ccccc1` [BDG_33393043], the Inhibition percent under setting [1] stood at 5.29%.

Consider `CNCc1cc(NC)nc(C2CCCN2C(=O)c2cccc(Oc3ccccc3)c2)n1` (stereo not drawn) [BDE_23425118], for which the Inhibition percent under setting [2] is -0.41%.

`Cc1nccc(C2CCCN2Cc2ccc(-c3ccccc3C(=O)O)cc2)n1` (stereo not drawn) [BDE_30687639]: the Inhibition percent under setting [1] is listed as -0.80%.

Consider `Cc1c(NC(=O)CN2[C@H](Cc3ccccc3)C[C@]3(C)NC(=O)CCC[C@H]23)cnn1C` [BDH_24639966], for which the Inhibition percent under setting [3] was 0.23.

Regarding `NC(=O)c1cc(C2CN(C(=O)c3ccnc(N4CCCCC4)c3)CCO2)nc2ccccc12` (stereo not drawn) [BDD_24083754], the Inhibition percent under setting [2] is reported as -2.41%.

Turning to `Cn1cc(-c2cccc(C(=O)N3CCCC(c4cccc(Cc5ccc(F)cc5)n4)C3)n2)cn1` (stereo not drawn) [BDH_32365360], the Inhibition percent under setting [1] came to 7.56%.

On to `CC(=O)N[C@@]12CN(C)CC[C@@H]1[C@@H](c1ccccc1)N(CC(=O)Nc1ccc(OC(F)F)cc1)C2` [BDH_33624452], for which the Inhibition percent under setting [3] was 0.21.

For `O=C1CCCC[C@]2(CN(C(=O)CCc3ccc(F)cc3)C[C@H]2c2ccccc2)N1` [BDH_32219010], the Inhibition percent under setting [3] is given as -1.17.

Consider `C[C@@H]1CC[C@@H]2[C@@H](O1)c1cc(OCc3ccccc3)c(C=O)cc1OC2(C)C` [BDG_34027484], for which, under setting [1], the Inhibition percent was found to be 0.0122%.

Turning to `CC1(C)Oc2c(O)cccc2[C@H]2O[C@H]3CCN(C(=O)c4cccc(Cn5ccnc5)c4)[C@@H]3C[C@@H]21` [BDG_34133876], the Inhibition percent under setting [3] was determined as 5.67.

For the molecule `Cc1cc(C)n(CCCC(=O)N2CCCC[C@]3(C)NC(=O)CC[C@H]23)n1` [BDG_33850399], the Inhibition percent under setting [3] was 0.88.

As to `COc1cccc(Cc2cnc(C3CCCN(C(=O)Cn4ncc5ccccc5c4=O)C3)o2)c1` (stereo not drawn) [BDE_33507930], under setting [2], the Inhibition percent is listed as -1.97%.

As for `COc1cccc(-c2cc(C(=O)N3[C@H]4CCC[C@H]5N(C)[C@H](Cc6ccccc6)[C@@H]3C[C@@]45C)on2)c1` [BDG_33506470], under setting [1], the Inhibition percent came out at 3.67%.

On to `Cc1nccn1Cc1cccc(C(=O)N2[C@H](Cc3ccccc3)C[C@]3(C)NC(=O)CCC[C@H]23)c1` [BDH_32370660], for which the Inhibition percent under setting [1] is given as -3.96%.

As for `Cn1c(COCC(=O)N2[C@H](Cc3ccccc3)C[C@]3(C)NC(=O)CCC[C@H]23)nc2ccccc21` [BDG_33628430], under setting [2], the Inhibition percent is -0.52%.

Regarding `CC(C)(NC(=O)Cc1ccccc1)C(=O)N1CCCC(Cc2cccc3ncccc23)C1` (stereo not drawn) [BDH_32327552], the Inhibition percent under setting [3] is recorded as -4.87.

Regarding `CC(=O)N[C@@]12CN(C)CC[C@@H]1[C@@H](c1ccccc1)N(C(=O)c1cccc(Oc3ncccn3)c1)C2` [BDH_32367667], the Inhibition percent under setting [1] is -3.64%.

For the molecule `Cc1nc(C2CCN(C(=O)C3CCCCC3)C2)nc2c1CC(=O)N2CCCc1ccccc1` (stereo not drawn) [BDF_25113060], under setting [3], the Inhibition percent is -1.14.

On to `CC(C)(NC(=O)c1ccccc1)C(=O)N1C[C@@H](c2ccc(F)cc2)[C@@]2(CCCC(=O)N2)C1` [BDH_32326628], for which, under setting [1], the Inhibition percent is 0.18%.

On to `COc1ccccc1CC(=O)N1CCCCC1c1ncc(Cc2ccccc2OC)o1` (stereo not drawn) [BDE_33514655], for which, under setting [1], the Inhibition percent came to 5.46%.

For `CN(C)C(=O)[C@@H]1C[C@@H](n2cc(C(=O)NCCc3ccccc3)ccc2=O)[C@H](c2ccccc2)N1C` [BDG_34039793], the Inhibition percent under setting [3] was determined as 1.80.
